Measured values taken from PMC10041525, “New Dual Inhibitors of Bacterial Topoisomerases with Broad-Spectrum Antibacterial Activity and In Vivo Efficacy against Vancomycin-Intermediate Staphylococcus aureus” (Journal of Medicinal Chemistry, 2023).
In brackets after ≈: the same amount, converted by molar mass. Read-outs that look alike come from different tables or passages of the source.

Key:
Type in all cases: cell-based
[1] = test system: 100 A. baumannii strains (50 MDR, 50 non-MDR); assay: MIC broth microdilution at IHMA Europe, panel of 100 strains; conditions: Acinetobacter baumannii; for MIC50: read-out: MIC 50
[2] = test system: P. aeruginosa ATCC 27853; assay: IHMA QC MIC; conditions: Pseudomonas aeruginosa, ATCC27853; read-out: MIC (QC, repeated tests)
[3] = test system: E. coli ATCC 25922; assay: IHMA QC MIC; conditions: Escherichia coli, ATCC25922; read-out: MIC (QC, repeated tests)

## COc1c(N2C[C@@H]3CCCN[C@@H]3C2)c(F)cc2c(=O)c(C(=O)O)cn(C3CC3)c12 [Moxifloxacin, moxifloxacin]
[1]; A. baumannii IHMA 1769393, Lithuania 2018, Non-MDR, read-out: MIC
  MIC: ≤ 0.5 µg/mL
[1]; A. baumannii IHMA 1769782, Israel 2018, MDR, read-out: MIC
  MIC: 8 µg/mL (≈ 19.9 µM)
[1]; A. baumannii IHMA 1769910, Israel 2018, Non-MDR, read-out: MIC
  MIC: ≤ 0.5 µg/mL
[1]; A. baumannii IHMA 1790317, Czech Republic 2018, Non-MDR, read-out: MIC
  MIC: ≤ 0.5 µg/mL
[1]; A. baumannii IHMA 1790916, Romania 2018, Non-MDR, read-out: MIC
  MIC: ≤ 0.5 µg/mL
[1]; A. baumannii IHMA 1791877, Israel 2018, MDR, read-out: MIC
  MIC: 8 µg/mL (≈ 19.9 µM)
[1]; A. baumannii IHMA 1792961, Jordan 2018, MDR, read-out: MIC
  MIC: 8 µg/mL (≈ 19.9 µM)
[1]; A. baumannii IHMA 1795669, Tunisia 2018, Non-MDR, read-out: MIC
  MIC: ≤ 0.5 µg/mL
[1]; A. baumannii IHMA 1815856, Israel 2018, MDR, read-out: MIC
  MIC: 8 µg/mL (≈ 19.9 µM)
[1]; A. baumannii IHMA 1821468, South Africa 2018, Non-MDR, read-out: MIC
  MIC: ≤ 0.5 µg/mL
[1]; A. baumannii IHMA 1829500, Georgia 2018, Non-MDR, read-out: MIC
  MIC: ≤ 0.5 µg/mL
[1]; A. baumannii IHMA 1830924, United Kingdom 2018, Non-MDR, read-out: MIC
  MIC: ≤ 0.5 µg/mL
[1]; A. baumannii IHMA 1849829, Kuwait 2018, Non-MDR, read-out: MIC
  MIC: ≤ 0.5 µg/mL
[1]; A. baumannii IHMA 1857118, Slovenia 2018, Non-MDR, read-out: MIC
  MIC: ≤ 0.5 µg/mL
[1]; A. baumannii IHMA 1863631, France 2018, Non-MDR, read-out: MIC
  MIC: ≤ 0.5 µg/mL
[1]; A. baumannii IHMA 1870054, United States 2018, Non-MDR, read-out: MIC
  MIC: ≤ 0.5 µg/mL
[1]; A. baumannii IHMA 1884428, Italy 2018, Non-MDR, read-out: MIC
  MIC: ≤ 0.5 µg/mL
[1]; A. baumannii IHMA 1884990, Germany 2018, Non-MDR, read-out: MIC
  MIC: ≤ 0.5 µg/mL
[1]; A. baumannii IHMA 1900538, Turkey 2018, Non-MDR, read-out: MIC
  MIC: ≤ 0.5 µg/mL
[1]; A. baumannii IHMA 1913773, Kenya 2018, Non-MDR, read-out: MIC
  MIC: ≤ 0.5 µg/mL
[1]; A. baumannii IHMA 1926285, Qatar 2018, Non-MDR, read-out: MIC
  MIC: ≤ 0.5 µg/mL
[1]; A. baumannii IHMA 1957343, Portugal 2019, Non-MDR, read-out: MIC
  MIC: ≤ 0.5 µg/mL
[1]; A. baumannii IHMA 1967860, Spain 2019, Non-MDR, read-out: MIC
  MIC: ≤ 0.5 µg/mL
[1]; A. baumannii IHMA 1975075, Israel 2019, Non-MDR, read-out: MIC
  MIC: ≤ 0.5 µg/mL
[1]; A. baumannii IHMA 1977077, Kuwait 2019, Non-MDR, read-out: MIC
  MIC: ≤ 0.5 µg/mL
[1]; A. baumannii IHMA 1983151, Greece 2019, MDR, read-out: MIC
  MIC: 8 µg/mL (≈ 19.9 µM)
[1]; A. baumannii IHMA 1986678, Turkey 2019, Non-MDR, read-out: MIC
  MIC: ≤ 0.5 µg/mL
[1]; A. baumannii IHMA 1987162, Croatia 2019, MDR, read-out: MIC
  MIC: 8 µg/mL (≈ 19.9 µM)
[1]; A. baumannii IHMA 1993615, Turkey 2019, MDR, read-out: MIC
  MIC: 8 µg/mL (≈ 19.9 µM)
[1]; A. baumannii IHMA 1995161, Czech Republic 2019, Non-MDR, read-out: MIC
  MIC: ≤ 0.5 µg/mL
[1]; A. baumannii IHMA 1997936, Morocco 2019, Non-MDR, read-out: MIC
  MIC: ≤ 0.5 µg/mL
[1]; A. baumannii IHMA 1999178, Belgium 2019, Non-MDR, read-out: MIC
  MIC: ≤ 0.5 µg/mL
[1]; A. baumannii IHMA 2014367, Jordan 2019, Non-MDR, read-out: MIC
  MIC: ≤ 0.5 µg/mL
[1]; A. baumannii IHMA 2014931, South Africa 2019, Non-MDR, read-out: MIC
  MIC: ≤ 0.5 µg/mL
[1]; A. baumannii IHMA 2019315, Romania 2019, Non-MDR, read-out: MIC
  MIC: ≤ 0.5 µg/mL
[1]; A. baumannii IHMA 2031511, Greece 2019, Non-MDR, read-out: MIC
  MIC: ≤ 0.5 µg/mL
[1]; A. baumannii IHMA 2031524, Greece 2019, MDR, read-out: MIC
  MIC: 4 µg/mL (≈ 9.96 µM)
[1]; A. baumannii IHMA 2034657, Tunisia 2019, Non-MDR, read-out: MIC
  MIC: ≤ 0.5 µg/mL
[1]; A. baumannii IHMA 2035134, Serbia 2019, Non-MDR, read-out: MIC
  MIC: ≤ 0.5 µg/mL
[1]; A. baumannii IHMA 2038976, Hungary 2019, MDR, read-out: MIC
  MIC: 8 µg/mL (≈ 19.9 µM)
[1]; A. baumannii IHMA 2058329, Slovenia 2019, Non-MDR, read-out: MIC
  MIC: ≤ 0.5 µg/mL
[1]; A. baumannii IHMA 2065587, France 2019, Non-MDR, read-out: MIC
  MIC: ≤ 0.5 µg/mL
[1]; A. baumannii IHMA 2099294, United Kingdom 2019, Non-MDR, read-out: MIC
  MIC: ≤ 0.5 µg/mL
[1]; A. baumannii IHMA 2129256, Qatar 2019, Non-MDR, read-out: MIC
  MIC: ≤ 0.5 µg/mL
[1]; A. baumannii IHMA 2157614, Australia 2020, Non-MDR, read-out: MIC
  MIC: ≤ 0.5 µg/mL
[1]; A. baumannii IHMA 2178574, Ukraine 2020, Non-MDR, read-out: MIC
  MIC: ≤ 0.5 µg/mL
[1]; A. baumannii IHMA 2180134, Malaysia 2020, Non-MDR, read-out: MIC
  MIC: ≤ 0.5 µg/mL
[1]; A. baumannii IHMA 2180142, Malaysia 2020, MDR, read-out: MIC
  MIC: 8 µg/mL (≈ 19.9 µM)
[1]; A. baumannii IHMA 2181370, Morocco 2020, MDR, read-out: MIC
  MIC: 8 µg/mL (≈ 19.9 µM)
[1]; A. baumannii IHMA 2183729, Argentina 2020, MDR, read-out: MIC
  MIC: 4 µg/mL (≈ 9.96 µM)
[1]; A. baumannii IHMA 2183849, Argentina 2020, Non-MDR, read-out: MIC
  MIC: ≤ 0.5 µg/mL
[1]; A. baumannii IHMA 2184382, Japan 2020, Non-MDR, read-out: MIC
  MIC: ≤ 0.5 µg/mL
[1]; A. baumannii IHMA 2193375, Venezuela 2020, MDR, read-out: MIC
  MIC: 8 µg/mL (≈ 19.9 µM)
[1]; A. baumannii IHMA 2193485, Venezuela 2020, Non-MDR, read-out: MIC
  MIC: ≤ 0.5 µg/mL
[1]; A. baumannii IHMA 2193607, Venezuela 2020, MDR, read-out: MIC
  MIC: 4 µg/mL (≈ 9.96 µM)
[1]; A. baumannii IHMA 2195460, Italy 2020, MDR, read-out: MIC
  MIC: 8 µg/mL (≈ 19.9 µM)
[1]; A. baumannii IHMA 2196959, South Africa 2020, MDR, read-out: MIC
  MIC: 8 µg/mL (≈ 19.9 µM)
[1]; A. baumannii IHMA 2206507, Taiwan 2020, Non-MDR, read-out: MIC
  MIC: ≤ 0.5 µg/mL
[1]; A. baumannii IHMA 2212575, Hungary 2020, Non-MDR, read-out: MIC
  MIC: ≤ 0.5 µg/mL
[1]; A. baumannii IHMA 2215307, Hong Kong 2020, Non-MDR, read-out: MIC
  MIC: ≤ 0.5 µg/mL
[1]; A. baumannii IHMA 2216586, Taiwan 2020, MDR, read-out: MIC
  MIC: 8 µg/mL (≈ 19.9 µM)
[1]; A. baumannii IHMA 2223200, Colombia 2020, Non-MDR, read-out: MIC
  MIC: ≤ 0.5 µg/mL
[1]; A. baumannii IHMA 2224303, Panama 2020, Non-MDR, read-out: MIC
  MIC: ≤ 0.5 µg/mL
[1]; A. baumannii IHMA 2233099, Guatemala 2020, MDR, read-out: MIC
  MIC: 8 µg/mL (≈ 19.9 µM)
[1]; A. baumannii IHMA 2233548, Kazakhstan 2020, Non-MDR, read-out: MIC
  MIC: ≤ 0.5 µg/mL
[1]; A. baumannii IHMA 2238964, Thailand 2020, MDR, read-out: MIC
  MIC: 8 µg/mL (≈ 19.9 µM)
[1]; A. baumannii IHMA 2239052, Thailand 2020, Non-MDR, read-out: MIC
  MIC: ≤ 0.5 µg/mL
[1]; A. baumannii IHMA 2261047, Belgium 2020, MDR, read-out: MIC
  MIC: 8 µg/mL (≈ 19.9 µM)
[1]; A. baumannii IHMA 2261633, Canada 2020, Non-MDR, read-out: MIC
  MIC: ≤ 0.5 µg/mL
[1]; A. baumannii IHMA 2274234, South Africa 2020, MDR, read-out: MIC
  MIC: 8 µg/mL (≈ 19.9 µM)
[1]; A. baumannii IHMA 2275237, Chile 2020, Non-MDR, read-out: MIC
  MIC: ≤ 0.5 µg/mL
[1]; MDR n = 50, read-out: MIN (minimum MIC)
  MIC: 4 µg/mL (≈ 9.96 µM)
[1]; all isolates n = 100
  MIC50: ≤ 0.5 µg/mL
[1]; all isolates n = 100, read-out: MIN (minimum MIC)
  MIC: ≤ 0.5 µg/mL
[1]; non-MDR n = 50, read-out: MAX (maximum MIC)
  MIC: ≤ 0.5 µg/mL
[1]; non-MDR n = 50
  MIC50: ≤ 0.5 µg/mL
[1]; non-MDR n = 50, read-out: MIC 90
  MIC90: ≤ 0.5 µg/mL
[1]; non-MDR n = 50, read-out: MIN (minimum MIC)
  MIC: ≤ 0.5 µg/mL
[2]
  MIC: 2 µg/mL (≈ 4.98 µM)
[3]
  MIC: ≤ 0.5 µg/mL
